40 compounds from publication PMC11249646, “Small-Molecule Disruptors of the Interaction between Calcium- and Integrin-Binding Protein 1 and Integrin αIIbβ3 as Novel Antiplatelet Agents” (ACS Pharmacology & Translational Science, 2024) can be followed below.

Like-named read-outs stand apart in the source and are kept apart here.

A word on the IC50: it is the point on the concentration scale where inhibition reaches its midpoint.

In this assay the target is T1, CIB1 and αIIb interaction (CIB1-GST : F-αIIb peptide) (Homo sapiens, UniProt Q99828).
T1 construct: made in house; host or cells: BL-21 plus RIL cells (E. coli)
T1 sequence (Q99828 1-191): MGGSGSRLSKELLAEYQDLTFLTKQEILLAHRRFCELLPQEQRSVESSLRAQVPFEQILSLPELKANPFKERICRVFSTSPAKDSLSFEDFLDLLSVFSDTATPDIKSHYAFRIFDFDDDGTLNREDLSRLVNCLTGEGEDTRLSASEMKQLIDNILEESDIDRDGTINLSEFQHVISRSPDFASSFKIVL
In words: FP assay, 1536-well qHTS format (primary and confirmatory screen). It counts as binding. The note with it: for Efficacy (%): negative = inhibition; for Curve Class: negative sign = inhibitory curve; for IC50: read-out: IC50. (qHTS replaces the single test concentration by a dilution series.)

[1] abbreviates: qHTS primary screen hits, Table S2.
[2] abbreviates: qHTS primary screen hits, Table S2, several classes where COUNT > 1.
[3] abbreviates: qHTS primary screen of LOPAC/NPACT libraries.
Where [4] appears, read: qHTS primary screen hits, Table S2, NPACT library.

As to `CCCCCCCCCCCC[N+](C)(C)Cc1ccccc1.[Cl-]` [NCGC00164245-03], under setting [1], the “Efficacy (%)” value is -38%, the “Curve Class” value was -2.2 and the IC50 is 50.1 µM.
For the compound `O.O=C(O)[C@@H]1[C@H]2C[C@H]3c4[nH]c5ccccc5c4CCN3C[C@@H]2CC[C@@H]1O` [NCGC00178432-05], under setting [1], the “Efficacy (%)” value is reported as -32% and the IC50 stood at 44.7 µM. Further, the “Curve Class” value under setting [2] is reported as -2.4.
For the compound `COc1ccc(Cl)cc1C(=O)NCCc1ccc(S(=O)(=O)NC(=O)NC2CCCCC2)cc1` [NCGC00015467-16], under setting [3], the “Efficacy (%)” value is reported as -14%, the “Curve Class” value is reported as -2.4 and the IC50 came to 31.6 µM.
As for `Cc1cc(C2N=C(Nc3nc4ccccc4o3)NC3=C2C(=O)CCC3)n[nH]1.O=C(O)C(F)(F)F` (centres unmarked) [NCGC00229726-01], under setting [1], the “Efficacy (%)” value was -26% and the half-maximal inhibitory concentration (IC50) turned out to be 56.2 µM. Also, the “Curve Class” value under setting [2] is -2.4.
On the same counts, the results for `O=C(O)CCCC[P+](c1ccccc1)(c1ccccc1)c1ccccc1.[Br-]` [NCGC00261975-01] are -44%, 56.2 µM and -2.4.
As to `O=C(Nc1ccc(Oc2ccc(Cl)cc2)c(Cl)c1)c1cc(I)cc(I)c1O` [NCGC00160556-02], under setting [1], the “Efficacy (%)” value is given as -27%, the “Curve Class” value is recorded as -2.4 and the IC50 came to 89.1 µM.
Consider `Cc1ccn2c(Nc3ccc4c(c3)OCO4)c(-c3ccccn3)nc2c1.O=C(O)C(F)(F)F` [NCGC00241360-01], for which, under setting [1], the “Efficacy (%)” value is reported as -51% and the IC50 was determined as 56.2 µM. In addition, the “Curve Class” value under setting [2] is -2.4.
`CCN(CC)C(=S)SSC(=S)N(CC)CC` [NCGC00016000-10]: under setting [1], the “Efficacy (%)” value was -67% and the IC50 amounted to 35.8 µM.
Consider `C=CC(=O)Nc1cccc(Sc2nc(Nc3ccc(N4CCN(C)CC4)cc3)ncc2Cl)c1` [NCGC00346497-02], for which, under setting [3], the “Efficacy (%)” value was -29%, the “Curve Class” value is on record as -2.4 and the IC50 came out at 20 µM.
In the case of `O=C(O)c1cc(O)c2cccc(O)c2c1O[C@@H]1O[C@H](CO)[C@@H](O)[C@H](O)[C@H]1O` [NCGC00385595-01], under setting [3], the “Efficacy (%)” value was -31%, the “Curve Class” value is -2.4 and the IC50 was determined as 39.8 µM.
Regarding `NS(=O)(=O)c1ccc(Cc2c(-c3ccc(F)c(-c4cccs4)c3)nn(-c3nc(C(=O)O)cs3)c2CC2CC2)cc1F.O=C(O)C(F)(F)F` [NCGC00390071-01], under setting [1], the “Efficacy (%)” value is listed as -33% and the half-inhibitory concentration (IC50) worked out at 50.1 µM. The “Curve Class” value under setting [2] is recorded as -2.2.
Turning to `CC1(CO)CCCC2(C)C1C(OC(=O)c1ccccc1)C=C1C(=O)OCC12O` (centres unmarked) [NCGC00380390-01], under setting [3], the “Efficacy (%)” value is listed as -28%, the “Curve Class” value is on record as -2.4 and the IC50 worked out at 44.7 µM.
On to `O=C(Nc1ccc(Cl)c(Cl)c1)Nc1nnc(N2CCNCC2)s1.O=C(O)C(F)(F)F` [NCGC00238616-01], for which, under setting [1], the “Efficacy (%)” value is reported as -35% and the half-maximal inhibitory concentration (IC50) amounted to 79.4 µM. Under setting [2], the “Curve Class” value was -2.4.
For `C=C(C)C(=O)OC1CC2(C)OC(=CC2=O)C(=C)CC2OC(=O)C(COC)C12` (centres unmarked) [NCGC00380534-01], the “Curve Class” value under setting [4] was -1.4. Under setting [1], the “Efficacy (%)” value was -17% and the IC50 is 28.2 µM.
As to `O=C(O)/C(=C/c1c(C(=O)O)[nH]c2cc(Cl)cc(Cl)c12)c1ccccc1` [NCGC00015639-04], under setting [3], the “Efficacy (%)” value is reported as -29%, the “Curve Class” value was -2.2 and the concentration for half-maximal inhibition (IC50) turned out to be 56.2 µM.
The matching figures for `N=C(N)c1ccc2c(c1)N/C(=C1/C=C(CC(=O)NC(CC(=O)O)C(=O)O)C=C(c3cc(S(N)(=O)=O)ccc3O)C1=O)N2` (centres unmarked) [NCGC00387860-01]: -31%, -1.4 and 7.1 µM.
As to `CC(=O)c1c(O)c(C)c(O)c(Cc2c(O)c3c(c(C(=O)/C=C/c4ccccc4)c2O)OC(C)(C)C=C3)c1O` [NCGC00025228-08], under setting [1], the “Efficacy (%)” value is -45%, the “Curve Class” value is on record as -1.2 and the IC50 stood at 28.2 µM.
As to `CN1CCN(c2ccc(C(=O)Nc3n[nH]c4ccc(Cc5cc(F)cc(F)c5)cc34)c(NC3CCOCC3)c2)CC1` [NCGC00484067-01], under setting [3], the “Efficacy (%)” value is reported as -21%, the “Curve Class” value is -2.4 and the half-inhibitory concentration (IC50) was 56.2 µM.
With `CCOC(=O)c1c(NC(=O)CN2CCCCC2)sc2c1CCN(C(=O)OCC)C2.O=C(O)C(F)(F)F` [NCGC00092717-02], under setting [1], the “Efficacy (%)” value is given as -31%, the “Curve Class” value was -2.4 and the concentration for half-maximal inhibition (IC50) is 89.1 µM.
For `NC[C@H](O)c1ccc(O)c(O)c1` [NCGC00159406-07], under setting [1], the “Efficacy (%)” value is given as -18% and the IC50 stood at 21.3 µM.
Turning to `O=S1(=O)OC(c2ccc(O)cc2)(c2ccc(O)cc2)c2ccccc21` [NCGC00013109-03], under setting [1], the “Efficacy (%)” value is -72%, the “Curve Class” value is -2.4 and the 50% inhibitory concentration (IC50) was found to be 44.7 µM.
As to `COc1ccc(NC(=O)c2cccs2)cn1.O=C(O)C(F)(F)F` [NCGC00229661-01], under setting [1], the “Efficacy (%)” value was -41% and the IC50 came to 50.1 µM. The “Curve Class” value under setting [2] was -2.2.
Consider `Nc1ccn(C2CO[C@H](CO)O2)c(=O)n1` (some centres unmarked) [NCGC00183848-01], for which, under setting [1], the “Efficacy (%)” value is -100% and the half-inhibitory concentration (IC50) worked out at 39.8 µM. In addition, under setting [2], the “Curve Class” value is recorded as -3.
As for `CC(C)(C)CNc1ncnc2ccc(-c3ccc(CO)o3)cc12.O=C(O)C(F)(F)F` [NCGC00238375-01], under setting [1], the “Efficacy (%)” value is reported as -42% and the IC50 came out at 50.1 µM. Further, under setting [2], the “Curve Class” value was -2.2.
As for `O=C(O)C(F)(F)F.O=S(=O)(Nc1ccc(C2CCNCC2)cc1)c1ccc(NCc2ccc(Br)cc2O)cc1` [NCGC00343916-01], under setting [1], the “Efficacy (%)” value was -31% and the IC50 was determined as 56.2 µM. Besides, under setting [2], the “Curve Class” value is listed as -2.4.
As for `Nc1nccn2c(C3CCC(C(=O)O)CC3)nc(-c3cc4cccc(Cl)c4[nH]3)c12` (centres unmarked) [NCGC00390408-01], under setting [3], the “Efficacy (%)” value is recorded as -33%, the “Curve Class” value was -2.4 and the half-maximal inhibitory concentration (IC50) was 50.1 µM.
Regarding `CC(C)NC[C@@H](O)c1ccc(O)c(O)c1` [NCGC00179436-02], under setting [3], the “Efficacy (%)” value was -24%, the “Curve Class” value is recorded as -2.2 and the 50% inhibitory concentration (IC50) amounted to 50.1 µM.
As for `CC(=O)NC(c1ccco1)c1cc(Br)c2cccnc2c1O.O=C(O)C(F)(F)F` (centres unmarked) [NCGC00183684-06], under setting [1], the “Efficacy (%)” value is -40% and the IC50 came out at 50.1 µM. In addition, the “Curve Class” value under setting [2] is on record as -2.2.
Regarding `CCc1c(-c2ccccc2)c(-c2ccccc2)nn1-c1ccccc1-c1cccc(OCC(=O)O)c1` [NCGC00387254-02], the “Curve Class” value under setting [4] is given as -2.4. For the same compound, under setting [1], the “Efficacy (%)” value is listed as -30% and the IC50 was 56.2 µM.
For `Cc1cc(OCCCc2c(C(=O)O)n(Cc3cccnc3)c3c(-c4c(COc5ccc(N6CCN(S(C)(=O)=O)CC6)cc5)nn(C)c4C)cccc23)cc(C)c1Cl` [NCGC00347283-01], under setting [1], the “Efficacy (%)” value was -26%, the “Curve Class” value was -2.4 and the IC50 stood at 34.1 µM.
As for `O=C(Nc1ccc(S(=O)(=O)N2CCOCC2)cc1)c1ccc(N2CCc3ccccc3C2)cc1` [NCGC00348032-01], under setting [1], the “Efficacy (%)” value is -34% and the IC50 came out at 50.1 µM. The “Curve Class” value under setting [2] is given as -2.4.
As to `COc1cc(Nc2cc(C#N)nc3cc(OCCCN4CCN(C)CC4)c(OC)cc23)c(Cl)cc1Cl` [NCGC00390366-01], under setting [3], the “Efficacy (%)” value is reported as -33%, the “Curve Class” value was -2.4 and the IC50 was determined as 56.2 µM.
As to `C[C@@]1(C2CCCC2)Cc2cc(OCC(=O)O)c(Cl)c(Cl)c2C1=O` [NCGC00094034-06], under setting [3], the “Efficacy (%)” value is -28%, the “Curve Class” value is -2.2 and the IC50 was 25.1 µM.
Regarding `CCOC(=O)N1CCN([N+]([O-])=NOc2ccc([N+](=O)[O-])cc2[N+](=O)[O-])CC1` [NCGC00261300-01], under setting [1], the “Efficacy (%)” value is on record as -44% and the IC50 was 21.3 µM.
Turning to `Cl.O=c1cc(CN2CCOCC2)occ1OCCCCCSc1ccnc2cc(C(F)(F)F)ccc12` [NCGC00188866-05], under setting [3], the “Efficacy (%)” value was -26%, the “Curve Class” value is reported as -2.4 and the 50% inhibitory concentration (IC50) is 39.8 µM.
The matching figures for `CCC(C)(OC(C)=O)C(=O)O[C@H]1[C@H](OC(C)=O)C[C@@H]2[C@@](C)([C@@H]3C[C@H]4C=CO[C@H]4O3)[C@H](C)C[C@H](OC(C)=O)[C@@]2(COC(C)=O)[C@@]12CO2` (some centres unmarked) [NCGC00380906-01]: -20%, -2.4 and 10 µM.
For the compound `O=C(O)C(F)(F)F.O=C1CC(c2ccccc2Br)c2sc(N3CCOCC3)nc2N1` (centres unmarked) [NCGC00488255-02], under setting [1], the “Efficacy (%)” value is -54% and the concentration for half-maximal inhibition (IC50) is 79.4 µM. The “Curve Class” value under setting [2] was -2.4.
As to `C=CC/C=C\C/C=C\CCCCCCCc1cccc(O)c1C(=O)O` [NCGC00169660-02], under setting [3], the “Efficacy (%)” value is -27%, the “Curve Class” value is reported as -1.4 and the IC50 was 25.1 µM.
Take `CC(C)=CCC1C(=O)N(c2ccccc2)N(c2ccccc2)C1=O` [NCGC00164582-02]: under setting [1], the “Efficacy (%)” value is given as -28% and the half-maximal inhibitory concentration (IC50) was determined as 50.1 µM. In addition, the “Curve Class” value under setting [2] is reported as -2.4.
`COc1cccc2c1C(=O)c1c(O)c3c(c(O)c1C2=O)C[C@@](O)(C(=O)CO)C[C@@H]3O[C@H]1C[C@H](N)[C@H](O[C@@H]2CCCCO2)[C@H](C)O1` [NCGC00167982-02]: under setting [1], the “Efficacy (%)” value was -42% and the half-maximal inhibitory concentration (IC50) came out at 7.7 µM.
